In BindingDB's records for PubMed 2138666 (Department of Veterans Affairs Medical Center, 1990) one finds Ki data, which are given here for 5 molecules.

For assay [1], the target named is T1, Alpha-2C adrenergic receptor (Rattus norvegicus, UniProt P22086).
T1 sequence (P22086 whole entry): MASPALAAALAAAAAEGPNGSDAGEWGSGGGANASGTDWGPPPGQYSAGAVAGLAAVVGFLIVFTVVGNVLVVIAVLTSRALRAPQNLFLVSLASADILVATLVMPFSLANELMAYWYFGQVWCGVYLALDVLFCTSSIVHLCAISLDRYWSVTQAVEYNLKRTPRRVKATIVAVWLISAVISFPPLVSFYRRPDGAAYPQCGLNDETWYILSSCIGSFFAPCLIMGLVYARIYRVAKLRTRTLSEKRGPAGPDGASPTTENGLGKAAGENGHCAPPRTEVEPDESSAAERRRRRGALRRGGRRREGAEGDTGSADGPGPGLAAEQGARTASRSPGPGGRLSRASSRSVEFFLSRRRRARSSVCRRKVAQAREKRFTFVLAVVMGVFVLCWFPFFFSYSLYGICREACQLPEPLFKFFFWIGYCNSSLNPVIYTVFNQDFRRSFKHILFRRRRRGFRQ

For a further assay, the target named is D(2) dopamine receptor (Rattus norvegicus, UniProt P61169).

Molecules are shown by their SMILES.

Sequence of D(2) dopamine receptor (P61169 whole entry): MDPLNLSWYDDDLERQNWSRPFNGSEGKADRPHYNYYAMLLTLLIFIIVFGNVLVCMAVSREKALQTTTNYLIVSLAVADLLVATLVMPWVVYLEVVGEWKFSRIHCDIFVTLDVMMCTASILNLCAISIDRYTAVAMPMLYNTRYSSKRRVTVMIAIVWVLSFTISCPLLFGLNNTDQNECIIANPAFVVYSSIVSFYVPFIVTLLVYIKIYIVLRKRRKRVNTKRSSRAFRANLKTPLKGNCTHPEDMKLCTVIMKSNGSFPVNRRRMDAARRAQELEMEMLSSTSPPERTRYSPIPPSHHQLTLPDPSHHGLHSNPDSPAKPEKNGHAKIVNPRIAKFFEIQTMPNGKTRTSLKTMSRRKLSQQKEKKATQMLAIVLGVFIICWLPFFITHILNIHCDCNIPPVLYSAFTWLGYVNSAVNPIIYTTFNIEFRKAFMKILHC

For `CC(C)(C)[C@]1(O)CCN2C[C@H]3c4ccccc4CCc4cccc(c43)[C@@H]2C1`, affinity in assay [1] was put at a Ki of 0.158 µM.
The molecule `c1ccc2c(c1)OCC(C1=NCCN1)O2` (stereo not given) displayed a Ki on D(2) dopamine receptor above 10 µM.
`Clc1cccc(Cl)c1N=C1NCCN1` [2-(2,6-dichloroanilino)-2-imidazoline] registered a Ki on D(2) dopamine receptor above 10 µM.
With `CCN1CCCC1CNC(=O)c1cc(S(N)(=O)=O)ccc1OC` (stereo not given) [N-[(1-ethylpyrrolidin-2-yl)methyl]-2-methoxy-5-sulfamoylbenzamide], the Ki in assay [1] was found to be 4.3 µM.
Regarding `Nc1cc(Cl)c(N=C2NCCN2)c(Cl)c1` [p-AMINOCLONIDINE], the Ki on D(2) dopamine receptor was above 10 µM.

One may read the Ki as a dissociation constant, usually derived from enzyme kinetics or from competition with a known ligand. Higher therefore signals weaker binding.
